Publication PMC4535766, “Antiprotozoal Activity Profiling of Approved Drugs: A Starting Point toward Drug Repositioning” (PLoS ONE, 2015)
Structures can show the parent of a compound that is named as a salt. Where two headings read alike, the source gives them in different places.

Legend:
[1] = test system: P. falciparum strain K1; test: In vitro activity against P. falciparum, serial drug dilution assay; settings: for selectivity ratio: rat
Description: (§1) Drug stock solutions (10mg/ml) were in DMSO (100%). […] Selectivity index (SI) was calculated as IC50 L6 cells/IC50 parasite.

[2] = test system: intracellular amastigotes of L. donovani strain MHOM-ET-67/L82; test: Activity against Leishmania donovani intracellular amastigotes in mouse peritoneal macrophages; settings: Leishmania donovani, Peritoneal macrophage, in Mus musculus
Procedure, shortened: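 Axenic amastigotes grown at pH 5.4 infected mouse peritoneal macrophages for 4 h before free parasites were washed off. Next day, seven 3-fold drug dilutions (30–0.04 μg/ml) were added for 96 h. Giemsa-stained infected macrophages were counted, burden reduction was taken vs untreated controls, and IC50 came from linear regression.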

[3] = test system: T. cruzi, strain Tulahuen C4, intracellular amastigotes; test: microbe, parasite or virus in culture; settings: for IC50: Trypanosoma cruzi, TULAHUEN; for selectivity ratio: Selectivity index: IC50 Cytotoxicity L6/ IC50 T. cruzi
Description: as §1

[4] = in vitro; settings: rat
Description: as §1

[5] = Cytotoxicity on macrophages infected with L. donovani; format: cell-based, mouse; settings: mouse
Description: After 24 h 1.2 x 10^5 amastigote L. donovani in 100 μl were added. The amastigotes were taken from an axenic culture grown at pH 5.4. Four hours later, the medium containing free amastigote forms was removed and replaced by fresh medium. The next day the medium was replaced by medium with or without a serial drug dilution of seven 3-fold dilution steps covering a range from 30 to 0.04 μg/ml. Parasite growth in the presence of the drug was compared to control wells. After 96 h of incubation, the medium was removed and the slides fixed with methanol for 10 min followed by staining with a 10% Giemsa solution. Infected and non-infected macrophages were counted for the control cultures and those exposed to the serial drug dilutions. The infection rates were determined. The results were expressed as a percentage reduction in parasite burden compared to control wells, and the IC50 was calculated by linear regression analysis.

[6] = test system: axenic amastigotes of L. donovani, strain MHOM-ET-67/L82; test: In vitro activity against L. donovani axenic amastigotes, serial drug dilution assay; format: cell-based, Leishmania donovani; settings: Leishmania donovani
Description: as §1

[7] = test system: T. b. rhodesiense strain STIB 900, trypomastigotes; test: In vitro activity against T. b. rhodesiense, serial drug dilution assay; settings: for IC50: Trypanosoma brucei; for selectivity ratio: rat
Description: as §1

[8] = Plasmodium falciparum, K1, read-out: IC50 P. falc. K1
[9] = 96 h, read-out: IC50 L. don. intracell
[10] = macrophages infected with L. donovani, read-out: IC50 Cytotox. mac.inf.
[11] = axenic amastigotes, strain MHOM-ET-67/L82, means of two independent assays, read-out: IC50 L. don. axen.
[12] = Selectivity index: IC50 Cytotoxicity L6/ IC50 P. falciparum
[13] = L6 cells, IC50 Cytotox. L6, L6 cells, means of two independent assays
[14] = mouse peritoneal macrophages infected with L. donovani, macrophages infected with L. donovani, read-out: IC50 Cytotox. mac.inf.
[15] = Plasmodium falciparum, K1, read-out: P. falc. IC50
[16] = read-out: L. don. intracell IC50
[17] = infected macrophages, read-out: Cytotox. mac.inf. IC50
[18] = L. donovani axenic amastigotes, read-out: L. don. axen. IC50

Row | SMILES | IC50 [1, 8] | IC50 [2, 9] | IC50 ([3]; read-out: IC50 T. cruzi) | IC50 at 96 h [5, 10] | IC50 [6, 11] | IC50 ([7]; read-out: IC50 T. b. rhod.) | IC50 ([4]; IC50 Cytotox. L6) | other results
1 | CC(C)CN(C[C@@H](O)[C@H](Cc1ccccc1)NC(=O)O[C@H]1CCOC1)S(=O)(=O)c1ccc(N)cc1 [Amprenavir] | 15.2 µM | > 59.3 µM | 105 µM | > 59.3 µM | 113 µM | 28.5 µM |  | IC50 [4]: 160 µM
2 | CN(C)CCC=C1c2ccccc2CCc2ccccc21 [Amitriptyline] | 1.16 µM | > 10.8 µM | 35.1 µM | 36.1 µM | 131 µM | 3.03 µM |  | Activity against P. falciparum (in words) ([1]; in vitro): micromolar range; IC50 [4]: 42.2 µM; selectivity ratio ([7]; Selectivity index: IC50 Cytotoxicity L6/ IC50 T. b. rhodesiense): 14
3 | Nc1nc(O)c2ncn(COC(CO)CO)c2n1 [Ganciclovir] | > 196 µM | > 118 µM | 240 µM | > 118 µM | > 392 µM | 252 µM | 179 µM | 
4 | CCc1nc(N)nc(N)c1-c1ccc(Cl)cc1 [Pyrimethamine] | 9.85 µM | > 12.1 µM | 5.71 µM | > 12.1 µM | 278 µM | 6.75 µM | 2.51 µM | 
5 | CN1CC(=O)N2[C@H](c3ccc4c(c3)OCO4)c3[nH]c4ccccc4c3C[C@@H]2C1=O [Tadalafil] | > 12.8 µM | > 77 µM | 8.6 µM | > 77 µM | 40.1 µM | 97.6 µM | 221 µM | Selectivity index: IC50 Cytotoxicity L6/ IC50 T. cruzi ([3]; rat): 26; selectivity ratio ([3]; rat): > 26
6 | Nc1ccc(S(=O)(=O)c2ccc(N)cc2)cc1 [Dapsone] | 168 µM | > 121 µM | 220 µM | > 121 µM | > 403 µM | 353 µM | 204 µM | 
7 | COc1cc(C)c2c(Oc3cccc(C(F)(F)F)c3)c(OC)cc(NC(C)CCCN)c2n1 (centres unmarked) [Tafenoquine] | 0.27 µM | 2.16 µM | 6.11 µM |  | 17.9 µM | 1.42 µM |  | selectivity ratio [1, 12]: 20; IC50 [4, 13]: 5.52 µM; IC50 at 96 h [5, 14]: 6.47 µM
8 | C#C[C@]1(O)CC[C@H]2[C@@H]3CCC4=Cc5oncc5C[C@]4(C)[C@H]3CC[C@@]21C [Danazol] |  |  |  |  |  |  |  | IC50 [1, 15]: 14.1 µM; IC50 [2, 16]: > 29.6 µM; IC50 ([3]; read-out: T. cruzi IC50): 6.25 µM; IC50 ([4]; Cytotox. L6 IC50): 32 µM; IC50 at 96 h [5, 17]: > 29.6 µM; IC50 [6, 18]: 10.2 µM; IC50 ([7]; read-out: T. b. rhod. IC50): 45.9 µM
9 | CCN(CCCCOC(=O)c1ccc(OC)c(OC)c1)C(C)Cc1ccc(OC)cc1 (centres unmarked) [Mebeverine] | 1.74 µM | 54.9 µM | 3.89 µM | > 69.8 µM | > 210 µM | 54.2 µM | 70.8 µM | selectivity ratio ([3]; rat): 18
10 | CCN(CC)CCCC(C)Nc1ccnc2cc(Cl)ccc12 (centres unmarked) [Chloroquine (Diphosphate), Chloroquine] | 0.17 µM |  |  |  |  | 3.81 µM |  | selectivity ratio [1]: 298; IC50 ([1]; read-out: IC50 P. falc. K1): 0.13 µM; IC50 [2, 16]: > 58.9 µM; IC50 ([3]; read-out: T. cruzi IC50): 99.2 µM; IC50 [4]: 50.6 µM; IC50 at 96 h [5, 17]: > 58.9 µM; IC50 ([6]; read-out: L. don. axen. IC50): > 196 µM; selectivity ratio [7]: 13
11 | Cc1cn([C@H]2C=C[C@@H](CO)O2)c(=O)[nH]c1=O [Stavudine] | 186 µM | > 134 µM | 341 µM |  | > 446 µM | 120 µM |  | IC50 [4, 13]: 266 µM; IC50 at 96 h [5, 14]: > 134 µM
12 | CC(Cc1cccc(C(F)(F)F)c1)NCCOC(=O)c1ccccc1 (centres unmarked) [Benfluorex] | 6.52 µM | 54.4 µM | 73.7 µM | > 85.4 µM | 243 µM | 21.1 µM | 49.1 µM | 
13 | CN(C)c1ccc(O)c2c1C[C@H]1C[C@H]3[C@H](N(C)C)C(O)=C(C(N)=O)C(=O)[C@@]3(O)C(O)=C1C2=O [Minocycline] |  |  |  |  |  |  |  | IC50 [1, 15]: 3.58 µM; IC50 [2, 16]: > 21.9 µM; IC50 ([3]; read-out: T. cruzi IC50): 22.3 µM; IC50 ([4]; Cytotox. L6 IC50): 9.42 µM; IC50 at 96 h [5, 17]: > 21.9 µM; IC50 [6, 18]: 45.7 µM; IC50 ([7]; read-out: T. b. rhod. IC50): 36.6 µM
14 | O=C(O)COCCN1CCN(C(c2ccccc2)c2ccc(Cl)cc2)CC1 (centres unmarked) [Cetirizine (Hydrochloride), Cetirizine] | 20 µM | > 70.5 µM | 120 µM | > 70.5 µM | 186 µM | 99.5 µM | 149 µM | 
15 | CN/C(=N/CCSCc1nc[nH]c1C)NC#N [Cimetidine] | 29.2 µM | > 119 µM | 351 µM | > 119 µM | > 396 µM | > 396 µM | 302 µM | 
16 | c1ccc(-c2ccc(C(c3ccccc3)n3ccnc3)cc2)cc1 (centres unmarked) [Bifonazole] | 3.18 µM | > 32.2 µM | 0.003 µM | > 32.2 µM | 5.48 µM | 26.8 µM | 39.3 µM | 
17 | CC(=O)OCC(CCn1cnc2cnc(N)nc21)COC(C)=O [Famciclovir] | > 156 µM | > 93.4 µM | 207 µM | > 93.4 µM | > 311 µM | 225 µM | 180 µM | 
18 | COc1ccc2[nH]c([S+]([O-])Cc3ncc(C)c(OC)c3C)nc2c1 (centres unmarked) [Omeprazole] | 13.2 µM | > 86.9 µM | 68.3 µM | > 86.9 µM | 90.9 µM | 51.8 µM | 126 µM | 
19 | NNC(=O)c1ccncc1 [Isoniazide] | 246 µM | > 219 µM | 383 µM | > 219 µM | > 729 µM | > 729 µM | 602 µM | 
20 | Cc1oncc1C(=O)Nc1ccc(C(F)(F)F)cc1 [Leflunomide] | > 18.5 µM | > 111 µM | 152 µM | > 111 µM | 21.8 µM | 213 µM | 124 µM | 
21 | OC(c1cc(C(F)(F)F)nc2c(C(F)(F)F)cccc12)C1CCCCN1 (centres unmarked) [Mefloquine (Hydrochloride), Mefloquine] | 0.002 µM |  |  |  |  |  | 3.25 µM | IC50 [1, 15]: 0.0024 µM; selectivity ratio [1, 12]: 1350; IC50 [2, 16]: 2.41 µM; IC50 ([3]; read-out: T. cruzi IC50): 4.48 µM; MCC at 96 h [5, 17]: 7.23 µM; IC50 [6, 18]: 38.6 µM; IC50 ([7]; read-out: T. b. rhod. IC50): 0.53 µM
